Results on 1 compound are retold here after publication PMC9780888, “4-Isobutylmethcathinone—A Novel Synthetic Cathinone with High In Vitro Cytotoxicity and Strong Receptor Binding Preference of Enantiomers” (Pharmaceuticals, 2022).

By IC50 is commonly meant the point on the concentration scale where inhibition reaches its midpoint.

For the assay, the system named is 5637, SH-SY5Y, HMC-3, Hep G2, L929; HaCaT, CaCo-2, MRC-5, BJ cells. Description: WST-1 viability assay, summary ranges over groups of cell lines. Type of assay: cell-based. Here is the method:
Based on the novelty of the IMBcat compound, we aimed to evaluate its in vitro cytotoxicity in selected model cell lines as well as to determine the toxicity of the IBMcat enantiomers, since both the chemical structure and chirality of compounds could play a role in their bioactivity (Table 2). The cytotoxic profile of the IBMcat was determined by a WST-1 viability assay after 72-h treatment. For this purpose, cell lines derived from distinct tissues, often affected by NPSs, were chosen, i.e., cells of kidney, hepatic, neural, urinary, and intestinal origin as well as keratinocytes and primary fibroblasts (HEK 293T, Hep G2, HMC-3, SH-SY5Y, 5637, CaCo-2, HaCaT, MRC-5, and BJ, respectively). […]
In this study, the following cell lines were used: HEK 293T, Hep G2, HMC-3, SH-SY5Y, 5637, CaCo-2, HaCaT, MRC-5, BJ, and L929. […] The selected cell lines were chosen so that not only primary noncancerous cells are evaluated but also cells derived from tissues, which are the most often affected by novel synthetic drugs, i.e., kidney, liver, urinary bladder, and nervous tissue. […]
The cytotoxicity of IBMCat was evaluated in vitro by using a WST-1 viability assay (Sigma-Aldrich, Saint Louis, MO, USA) based on the transformation of a tetrazolium salt into colored formazan in metabolically active cells. […] After 72 h of additional incubation of the cells, their viability was determined by WST-1. […]
In general terms: Tetrazolium assays rely on reduction of a dye to a coloured formazan, in cell work by metabolically active cells.

SMILES strings stand for the structures. Like-named read-outs stand apart in the source and are kept apart here.

Regarding `CNC(C)C(=O)c1ccc(CC(C)C)cc1.Cl` (centres unmarked) [IBMcat, 4-isobutylmethcathinone hydrochloride], the IC50 (5637, SH-SY5Y, HMC-3 and Hep G2 cells, after 72 h, read-out: IC50 values (range over cell lines)) lay within 18 to 65 µM; the IC50 (HaCaT, CaCo-2, MRC-5 and BJ cells, 72 h, racemate and enantiomers, read-out: IC50 (range over cell lines)) lay within 329 to 749 µM.
